Assay results reported in paper PMC5343874, “High Specific Selectivity and Membrane-Active Mechanism of Synthetic Cationic Hybrid Antimicrobial Peptides Based on the Peptide FV7” (International Journal of Molecular Sciences, 2017).
No end group written: not given here.

Experiments:
[1] = system: S. aureus ATCC 29213; assay: Salt and heat sensitivity (MIC); format: cell-based, Staphylococcus aureus; design: key to MIC, FeCl3 / MIC, Mix / MIC, Control / MIC, NaCl / MIC, KCl / MIC, NH4Cl / MIC, MgCl2 / MIC, ZnCl2 / MIC, CaCl2: MIC in µM (peptide serial dilutions 0.5–128 µM); MIC, Heat (100 °C): unit not given beside the values
Procedure: (§1) Minimum inhibitory concentration (MIC) was determined using the modified standard microtiter dilution method as described previously. The bacteria were incubated overnight at 37 °C, […] at 220 rpm and transferred to new nutrient broth (MHB) until the logarithmic phase of growth. The bacteria were then diluted into 10^5 colony forming units (10^5 CFU/mL) in MHB. The peptides were dissolved and diluted in 0.01% acetic acid and 0.2% bovine serum albumin (BSA). Briefly, serial diluted (0.5–128 µM) peptides were added to sterile 96-well plates in a 50-μL volume of bacteria in MHB mixed with 50 µL. […] The results are expressed as an average of the MICs at least three times.
(§2) The incubation to test for thermal stability occurred at 100 °C for 1 h. After these treatments, the procedures were the same as described above for the MIC assay.

[2] = system: E. coli ATCC 25922; assay: Salt and heat sensitivity (MIC); format: cell-based, Escherichia coli; design: key to MIC, Control / MIC, NaCl / MIC, KCl / MIC, NH4Cl / MIC, MgCl2 / MIC, ZnCl2 / MIC, FeCl3 / MIC, CaCl2 / MIC, Mix: MIC in µM (peptide serial dilutions 0.5–128 µM); MIC, Heat (100 °C): unit not given beside the values
Procedure: as §1, §2

[3] = system: human red blood cells (hRBC); assay: Hemolytic activity; format: cell-based; details: 37 °C
Procedure: The hemolytic activity of the peptides was evaluated by measuring the amount of released hemoglobin by the lysis of erythrocytes. The measurement was as previously described. Human red blood cells (hRBC) were obtained from healthy donors by the ethics committee of the Northeast Agricultural University Hospital. The fresh blood cells were washed 2–3 times in PBS (pH 7.4) and centrifuged at 1000× g for 5 min at 4 °C, then resuspended in PBS. Briefly, 50 μL of hRBC solution was incubated with 50 μL of different concentrations of each peptide dissolved in PBS in a 96-well microtiter plate. After incubation for 1 h at 37 °C, the mixtures were centrifuged at 1000× g for 5 min at 4 °C and then the supernatant was transferred to another 96-well microtiter plate. The release of hemoglobin was monitored by measurement of the absorbance at 570 nm using a multimode microplate reader (SpectraMax M5, Molecular Devices, San Francisco, CA, USA). The concentration causing 5% hemolysis was defined as the minimal hemolytic concentration (MHC). The control samples for 0% and 100% hemolysis consisted of hRBC in PBS (Ablank) only and in 0.1% Triton X-100 (Atriton), respectively. The percent hemolysis was calculated according to the following equation: % Hemolysis = [(Asample − Ablank)/(Atriton − Ablank)] × 100

[4] = system: E. coli UB1005 inner membrane; assay: Inner membrane permeability (ONPG hydrolysis); format: cell-based, Escherichia coli; details: 1× MIC, absorbance 420 nm, 0–30 min
Procedure: The inner membrane permeability activity against E. coli bacteria was determined by the uptake of ONPG. E. coli UB 1005 cells were cultured to mid-log phase in MHB medium containing 2% lactose at 37 °C, and harvested by centrifugation at 3000× g for 5 min. After washing twice, the cells were diluted to an OD600 of 0.05 with buffer (10 mM PBS, pH 7.4) containing 1.5 mM ONPG. […] The value of OD reflected the ONPG flowing into the cells was measured at 420 nm from 0 to 30 min every two min.

[5] = system: S. aureus ATCC 29213; format: cell-based, Staphylococcus aureus
Procedure: as §1
(§3) E. coli ATCC 25,922, S. typhimurium ATCC 7731, S. typhimurium ATCC 14028, P. aeruginosa ATCC 27853, B. subtilis CMCC 63501, S. aureus ATCC 29213, S. epidermidis ATCC 12228 and E. faecalis ATCC 29212 were obtained from the College of Veterinary Medicine, Northeast Agricultural University (Harbin, China). E. coli UB1005 was kindly provided by Qingsheng Qi (State Key Laboratory of Microbial Technology, Shandong University, Jinan, China). P. Aeruginosa PAO1 was kindly provided by Wengong Yu (State Key Laboratory of School of Medicine and Pharmacy, Ocean University of China, Qingdao, China).

[6] = system: S. typhimurium ATCC 14028; format: cell-based, Salmonella typhimurium
Procedure: as §1, §3

[7] = system: S. typhimurium ATCC 7731; format: cell-based, Salmonella typhimurium
Procedure: as §1, §3

[8] = system: B. subtilis CMCC 63501; format: cell-based, Bacillus subtilis
Procedure: as §1, §3

[9] = system: S. faecalis ATCC 29212; format: cell-based
Procedure: as §1, §3

[10] = system: Gram-negative and Gram-positive bacteria; assay: MIC across the bacterial panel; format: cell-based
Procedure: as §1, §3

[11] = system: P. aeruginosa ATCC 27853; format: cell-based, Pseudomonas aeruginosa
Procedure: as §1, §3

[12] = system: P. aeruginosa PAO1; format: cell-based, Pseudomonas aeruginosa
Procedure: as §1, §3

[13] = system: S. epidermidis ATCC12228; format: cell-based, Staphylococcus epidermidis
Procedure: as §1, §3

[14] = system: E. coli ATCC 25922; format: cell-based, Escherichia coli
Procedure: as §1, §3

[15] = system: E. coli UB 1005; format: cell-based, Escherichia coli
Procedure: as §1, §3

[16] = mixture medium with all salts in physiological concentrations
[17] = peptide incubated at 100 °C for 1 h

CC[C@H](C)[C@H](NC(=O)CN)C(=O)NCC(=O)N[C@@H](C)C(=O)N[C@H](C(=O)N[C@@H](CC(C)C)C(=O)N[C@@H](CCCCN)C(=O)N[C@H](C(=O)N[C@@H](CC(C)C)C(=O)N[C@H](C(=O)N[C@H](C(=O)NCC(=O)N[C@@H](CC(C)C)C(=O)N1CCC[C@H]1C(=O)N[C@@H](C)C(=O)N[C@@H](CC(C)C)C(=O)N[C@H](C(=O)N[C@@H](CO)C(=O)N[C@@H](Cc1c[nH]c2ccccc12)C(=O)N[C@H](C(=O)N[C@@H](CCCCN)C(=O)N[C@@H](CCCNC(=N)N)C(=O)N[C@@H](CCCCN)C(=O)N[C@@H](CCCNC(=N)N)C(=O)N[C@@H](CCC(N)=O)C(=O)N[C@@H](CCC(N)=O)C(N)=O)[C@@H](C)CC)[C@@H](C)CC)[C@@H](C)O)[C@@H](C)O)C(C)C)C(C)C [ME26, melittin]
MIC, MgCl2 ([1]; 1 mM MgCl2): 2 | MIC, CaCl2 ([1]; 2.5 mM CaCl2): 4 | MIC, FeCl3 ([1]; 4 mM FeCl3): 2 | MIC, KCl ([1]; 4.5 mM KCl): 4 | MIC, NH4Cl ([1]; 6 mM NH4Cl): 2 | MIC, ZnCl2 ([1]; 8 mM ZnCl2): 2 | MIC, NaCl ([1]; 150 mM NaCl): 4 | MIC, Control ([1]; absence of physiological salts): 8 | MIC, Mix [1, 16]: 4 | MIC, Heat (100 °C) [1, 17]: 8 | MIC, MgCl2 ([2]; 1 mM MgCl2): 4 | MIC, CaCl2 ([2]; 2.5 mM CaCl2): 2 | MIC, FeCl3 ([2]; 4 mM FeCl3): 2 | MIC, KCl ([2]; 4.5 mM KCl): 2 | MIC, NH4Cl ([2]; 6 mM NH4Cl): 2 | MIC, ZnCl2 ([2]; 8 mM ZnCl2): 4 | MIC, NaCl ([2]; 150 mM NaCl): 4 | MIC, Control ([2]; absence of physiological salts): 2 | MIC, Mix [2, 16]: 4 | MIC, Heat (100 °C) [2, 17]: 2 | concentration giving complete hemolysis ([3]; human erythrocytes, 1 h): greater than 4 µM | inner membrane permeability (ONPG hydrolysis, in words) [4]: highest ability for inner membrane permeability

AKKFGKAFVGEIM-NH2 [MA]
MIC [5]: >64 µM | MIC [6]: >64 µM | MIC [7]: >64 µM | MIC [8]: >64 µM | MIC [9]: >64 µM | minimum inhibitory concentration [10]: greater than 64 μM | MIC [11]: >64 µM | MIC [12]: >64 µM | MIC [13]: >64 µM | MIC [14]: 32 µM | MIC [15]: >64 µM

FKRIVQRIKDFLR-NH2 [LL]
MIC [5]: 16 µM | MIC [6]: 32 µM | MIC [7]: 16 µM | MIC [8]: 16 µM | MIC [9]: 32 µM | MIC [11]: 8 µM | MIC [12]: 16 µM | MIC [13]: 8 µM | MIC [14]: 16 µM | MIC [15]: 16 µM

FRIRVRV-NH2 [FV7]
hemolysis ([3]; at 128 µM, human erythrocytes, 1 h): approximately 15% | concentration causing 5% hemolysis (minimal hemolytic concentration, MHC) ([3]; fresh human erythrocytes in PBS pH 7.4, 1 h, absorbance 570 nm, maximal concentration 128 µM, averages of three independent experiments): 4 µM | MIC [5]: 64 µM | MIC [6]: 16 µM | MIC [7]: 32 µM | MIC [8]: 16 µM | MIC [9]: 32 µM | MIC [11]: 16 µM | MIC [12]: 32 µM | MIC [13]: 32 µM | MIC [14]: 16 µM | MIC [15]: 32 µM
